The species named for this assay is Homo sapiens. Put plainly: Cytosolic phospholipase A2 (c-PLA2) inhibitory potency of the compound was evaluated by measuring the calcium ionophore A-23,187-induced arachidonic acid release from human platelets. The format is functional.

What is called IC50 is the concentration at which inhibition is half-maximal. `CCCCCCCCCCCC(=O)c1c(C(=O)O)n(CCSc2ccc(C(=O)O)cc2)c2ccccc12`: the IC50 came to 2.5 µM.
In the case of `CCCCCCCCCCCC(=O)c1c(C(=O)O)n(CCOc2ccc(CC(=O)O)cc2)c2ccccc12` it was 2.6 µM; in that of `CCCCCCCCCCCC(=O)c1c(C(=O)O)n(CCOc2ccc(C(=O)O)cc2)c2ccccc12`, 0.86 µM; in that of `CCCCCCCCCCCC(=O)c1c(C(=O)O)n(CCCCCCCC(=O)O)c2ccccc12`, 2.5 µM.

The record behind these values is ChEMBL document CHEMBL1133970, “Novel 3-dodecanoylindole-2-carboxylic acid inhibitors of cytosolic phospholipase A(2)” (Bioorg Med Chem Lett, 2001).
